System: prostate cancer cells (parental PPT2, primary tumor-derived)
Assay: Cytotoxic drug treatment of parental primary prostate cancer cells under stemness-promoting culture
Format: cell-based, human
Conditions: 0.1-3 μM concentrations; FIG. 1C
From the text: Initially, the isolated fast adherent cells represented a mixture of a majority of tumor-associated fibrocytes with a minor population of large cancer cells (FIG. 1A).

Row | Compound | enrichment of multinucleated gigantic cells (highly drug resistant type of CSCs)
1 | CC(=O)O[C@@]12CO[C@@H]1C[C@H](O)[C@@]1(C)C(=O)[C@H](OC(=O)C3CC3)C3=C(C)[C@@H](OC(=O)[C@H](O)[C@H](C=C(C)C)NC(=O)OC(C)(C)C)C[C@@](O)([C@@H](OC(=O)c4ccccc4)[C@H]21)C3(C)C [SBT-1214] | significant enrichment and visualization of the multinucleated gigantic cells
2 | CC(=O)O[C@H]1C(=O)[C@@]2(C)[C@H]([C@H](OC(=O)c3ccccc3)[C@]3(O)C[C@H](OC(=O)[C@H](O)[C@@H](NC(=O)c4ccccc4)c4ccccc4)C(C)=C1C3(C)C)[C@]1(OC(C)=O)CO[C@@H]1C[C@@H]2O [Taxol] | significant enrichment and visualization of the multinucleated gigantic cells

Source: patent publication US20140017721A1 (The Research Foundation of State University of New York, priority 2012, published 2014)
